pIC50: −log10 of the molar value.
What was measured:
[1] = system: human liver tumor cell line ITRI-H28; assay: Cell viability of ITRI-H28 cells after Sorafenib treatment (Alarmablue assay); format: cell-based; conditions: 48-hour treating period, P value 0.02, read-out: half maximal inhibitory concentration (IC50)
Experimental: In the experiment, a plurality of plates are prepared with 1×10^4 ITRI-H28 cells seeded respectively thereon and divided into a plurality of groups, and the groups are treated with different concentrations of Sorafenib, such as 30, 15, 7.5, 3.75, 1.88, and 0.94 uM. Next, after a 48-hour treating period, a cell viability of each of the groups is measured by an Alarmablue measurement assay, and results are shown in FIG. 3.
A calculation is done according to the results of FIG. 3, a half maximal inhibitory concentration (IC50) of Sorafenib in the ITRI-H28 cell line are about 2.79±0.41, and a statistical P value is 0.02. According to the above results, the human liver tumor cell line ITRI-H28 has a susceptibility to the HCV-related HCC drug, which is able to use in a HCV-related HCC drug screening. Furthermore, according to the above experiments, the human liver tumor cell line ITRI-H28 has cancer cell properties, which can be used widely in a liver drug screening.

liver cancer = conditions: phase III of human clinical trials; cited from earlier work

CNC(=O)c1cc(Oc2ccc(NC(=O)Nc3ccc(Cl)c(C(F)(F)F)c3)cc2)ccn1 [Sorafenib]
pIC50 [1]: ~5.55
extension of patient survival time (liver cancer): three

From US20150159141A1, “ISOLATED HUMAN LIVER TUMOR CELL LINE AND METHOD OF AGENT SCREENING” (Industrial Technology Research Institute, priority 2013, published 2015)
